# Legend:
# SK-HEP-1 cells = experiment: alamarBlue cell viability, SK-HEP-1; type: cell-based, human
# Source text: Next, we analyzed the effect of PGG on cell proliferation in different liver cancer cell lines, including Huh7, Hep3B (ATCC-No 8064), HepG2 (ATCC HB-8065), SK-HEP-1 (ATCC HTB-52), Mahlavu and HepG2 (ATCC HB-8065).
# Please refer to FIG. 18, which illustrates the effect of PGG on cell proliferation in different liver cancer cell lines, wherein the numeral 1 denotes Huh7 cells, the numeral 2 denotes Hep3B cells, the numeral 3 denotes SK-HEP-1 cells, the numeral 4 denotes Mahlavu cells, and the numeral 5 denotes HepG2 cells. And cell viability was determined by the alamarBlue® viability assay. IC50 values of PGG in each cell line are shown as follows: Huh7 cells 0.03 mg/mL, Hep3B cells 0.07 mg/mL, SK-HEP-1 cells, Mahlavu cells and HepG2 0.10 mg/mL dose-dependent.
# Human liver cancer cell lines Huh7, Hep G2, Hep 3B, SK-HEP-1, Mahlavu and embryonic kidney cell line HEK-293T all were cultured in Dulbecco's Modified Eagle's Medium (DMEM) (Gibco BRL, Grand Island, N.Y., USA) with 10% heat-inactivated fetal bovine serum (HyClone, Logan, Utah, USA), penicillin (100 U/mL), streptomycin ([…]), nonessential amino acids (0.1 mM/L) and L-glutamine (2 mM/L) in a humidified incubator with 5% CO2.
# [1] = test system: human glycine N-methyltransferase promoter; experiment: GNMT promoter-driven luciferase reporter assay in H7GPL cells; type: cell-based; details: H7GPL luciferase
# Protocol: Please refer to FIG. 1, which illustrates the configuration of pLV-GNMTpLuc plasmid. HEK293T cells were cotransfected with a packaging plasmid-pCMV-ΔR8.91, a VSV-G envelope expressing plasmid-pMD.G and pLV-GNMTpLuc using TurboFect™ Reagent (Fermentas, Hanover, Md.). One resultant colony was picked, amplified and denominated as H7GPL (HuH-7-GNMT promoter-Luciferase). The relative luciferase activity (RLA) was calculated as “activity of luciferase/intensity of alamarBlue fluorescence”. The fold changes in GNMT promoter induction was calculated as “RLA of drug/RLA of solvent control”. Compounds with the ability to activate human glycine N-methyltransferase promoter in H7GPL could serve as a citeria for screening drugs.
# Please refer to FIG. 2, which illustrates the luciferase activity in a screening platform. Previously, 26 FDA approved drugs were identified that can reverse the gene expression signature of HCC. We obtained 26 drugs. H7GPL cells were seeded in 96-well plates for 18 hours and then were treated with these 26 drugs and solvent control for an extra 24 hours.
# In the initial screening, when (individual luciferase activity−average luciferase activity of all hits)/standardized Z scores of all samples is greater than 1.5, it means the compound has the capability of enhancing the GNMT reporter activity.
# Huh7 cells were infected with this virus and selected with puromycin-containing medium. One resultant colony was picked, amplified and denominated as H7GPL (Huh7 GNMT promoter-luciferase). The cell lysate of H7GPL was used for luciferase activity measurement using the Luciferase Assay System (Promega).
# For primary screening, H7GPL cells seeded in 96-well plates were treated for 24 h with individual drugs at a concentration of 2 mg/mL for crude extracts and 0.2 mg/mL for pure compounds and then were lysed for the luciferase activity assay using the Luciferase Assay System (Promega, Madison, Wis., USA).
# Reporter activity for each well was transformed to the Z score by using data from all assay plates.
# Then, hits of primary screening were sorted by Z score ≥1.5 and used for secondary screening.
# And then placed in the above-described culture plate H7GPL cell replication, and after the disposal of seized goods in those 20 hours, the company added AbD serotec Reagent (Oxford, UK), further cultured for 4 hours.
# The cytotoxicity was measured according to the manufacturer's recommendation for assessing the reporter gene.
# Drugs that induced GNMT promoter activity ≥1.5-fold were considered as hits of the secondary screen with the capability of enhancing the activity of GNMT.
# GNMT promoter = experiment: Dual luciferase GNMT promoter reporter assay in c-Myc knocked-out Huh7 cells; type: cell-based, human; details: 0.1 mg/mL
# Protocol: Huh7 cells were co-transfected with a GNMT promoter reporter plasmid, a thymidine kinase (TK) renilla luciferase plasmid, a shMyc plsmid or a shLacZ plasmid for 72 hours.
# Evaluating whether the activity of GNMT promoter is damaged or not by knocking out the c-Myc gene and then administering with PGG, in order to confirm that the inhibition of the expression of c-Myc resulting in induced GNMT promoter due to PGG.
# Please refer to FIG. 39, which illustrates overexpressions of PGG and c-Myc have influences on GNMT reporter, wherein the numeral 1 denotes the solvent, the numeral 2 denotes PGG, the numeral 3 denotes shLacZ, and the numeral 4 denotes shMyc.
# c-Myc = c-Myc expression in xenograft tumors; type: in vivo, mice; details: FIG. 34 c-Myc/actin (PGG); FIG. 35 mRNA (F3-6 25 and 300 mpk)
# Protocol: Please refer to FIGS. 34-35. FIG. 34 illustrates c-Myc/actin expression ratio in the tumor after treatments, wherein the numeral 1 is for the solvent, and the numeral 2 is for PGG. FIG. 35 illustrates c-Myc in RNA expression in the tumor after treatments, wherein the numeral 1 is for the solvent, the numeral 2 is for F3-6 (25 mpk), and the numeral 3 is for F3-6 (300 mpk).
# RNA was prepared by using Tri Reagent (Sigma-Aldrich, St Louis, Mo., USA) and was reverse transcribed into cDNA using a Super Script II Reverse Transcriptase Kit (Invitrogen Inc., Carlsbad, Calif., USA).
# PCR was performed on an ABI StepOne Plus System (Applied Biosystems, Foster City, Calif., USA) using the LightCycler® First Start DNA Master SYBR Green I reagent (Roche Diagnostics, Basel, Switzerland). The mRNA level was normalized using the TATA-box binding protein (TBP) mRNA level as the standard.
# The following primers were used: GNMT forward, 5′-ACTGGATGACT CTGGACAA-3′ (SEQ ID NO. 3) and reverse, 5′-ACTGAGGATGTGGTCGT-3′(SEQ ID NO. 4); TBP forward, 5′-[…]-3′ (SEQ ID NO. 5) and reverse, 5′-[…]-3′(SEQ ID NO. 6); c-Myc forward, […](SEQ ID NO. 7) and reverse, […](SEQ ID NO. 8). […]
smiles,measurement,setting,value
"O=C(OC[C@H]1O[C@@H](OC(=O)c2cc(O)c(O)c(O)c2)[C@H](OC(=O)c2cc(O)c(O)c(O)c2)[C@@H](OC(=O)c2cc(O)c(O)c(O)c2)[C@@H]1OC(=O)c1cc(O)c(O)c(O)c1)c1cc(O)c(O)c(O)c1 [PGG, 1,2,3,4,6-penta-O-galloyl-β-D-glucopyranoside]",IC50,SK-HEP-1 cells,100 µg/mL
same,GNMT promoter activity (in words),[1],can induce GNMT promoter activity
same,GNMT promoter induction in cells knocked out c-Myc (shMyc vs shLacZ),GNMT promoter,drop
same,expression of c-Myc in the tumor xenograft mice,c-Myc,lowers the expression of c-Myc

# Source: US11000535B2, “Anticancer composition and use thereof” (KAOHSIUNG MEDICAL UNIVERSITY, priority 2015, dated 2021)
